In assay [1] the target is HSD17B13 enzyme (Homo sapiens (Human), UniProt Q7Z5P4). Nature of the assay: hHSD17B13 IC50 Assay (FAC beta-estradiol), purified protein enzyme activity assay with NAD(P)H-Glo luciferase readout. The format is biochemical. Conditions: geometric mean, 12 μM FAC beta-estradiol, 500 μM NAD+, read-out: hHSD17B13_IC50 GMean IC50. On the procedure:
The following protocols may of course be varied by those skilled in the art. hHSD17B13 IC50 Assay (FAC beta-estradiol)
HSD17B13 enzyme inhibition potency of test compounds was determined using a purified protein biochemical enzyme activity assay, using NAD(P)H-Glo luciferase readout (Promega). HSD17B13 enzyme uses the oxidized form of nicotinamide adenine dinucleotide (NAD+) as a cofactor during metabolism of Beta-Estradiol (substrate) to […], while converting NAD+ to the reduced form (NADH). The Promega NAD(P)H-Glo™ assay is a homogeneous bioluminescent assay that generates a light signal from biochemical reactions that contain NADH (or nicotinamide adenine dinucleotide phosphate, NADPH). In the presence of NADH (or NADPH), the enzyme Reductase reduces a proluciferin reductase substrate to form luciferin. Luciferin then is quantified using Ultra-Glo™ Recombinant Luciferase (rLuciferase), and the light signal produced is proportional to the amount of NAD(P)H in the sample. […] The reaction was initiated by the addition of 2 μL/well purified HSD17B13 protein (30 nM FAC in assay buffer). Compound, substrate mix and HSD17B13 protein was incubated in the dark at room temperature for 2 hours before the addition of 3 μL/well NAD(P)H-Glo detection reagent, prepared from luciferase detection reagent and reductase/reductase substrate, as per manufacturer's instructions (Promega, G9061). Detection reagent was incubated in the dark for 1 hour at room temperature before plates were read on the Envision plate reader (Perkin Elmer) using a luminescent protocol. Data expressed as relative luminescent units (RLUs) were then normalized to control wells using Activity Base (IDBS). Zero percent effect (ZPE) was defined as RLUs generated from uninhibited HSD17B13 protein (vehicle control).

Assay [2] concerns the target wild type human HSD17B13 (Homo sapiens (Human), UniProt Q7Z5P4). Description: HEK_Beta-Est LCMS_IC50_Tekcel, whole-cell HEK-HSD17B13 inhibition assay, estrone production by LCMS. The format is cell-based. The settings on record: geometric mean, HEK cells stably expressing wild type human HSD17B13, 25 μM FAC beta-estradiol, read-out: HEK_Beta-Est LCMS_IC50—Tekcel GMean IC50. Put shortly:
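HEK cells expressing wild-type human HSD17B13 were preincubated with compound for 1 hour at 37° C, then the beta-estradiol/NAD+ reaction ran for 2 hours at 37° C. Estrone formed was quantified by LCMS as product area ratio and normalized to uninhibited vehicle-control wells.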

Counter-ions that a name gives are not always drawn.

As usually defined, the IC50 is the concentration that gives 50% inhibition.

HSD17B13 enzyme, sequence (Q7Z5P4 20-300): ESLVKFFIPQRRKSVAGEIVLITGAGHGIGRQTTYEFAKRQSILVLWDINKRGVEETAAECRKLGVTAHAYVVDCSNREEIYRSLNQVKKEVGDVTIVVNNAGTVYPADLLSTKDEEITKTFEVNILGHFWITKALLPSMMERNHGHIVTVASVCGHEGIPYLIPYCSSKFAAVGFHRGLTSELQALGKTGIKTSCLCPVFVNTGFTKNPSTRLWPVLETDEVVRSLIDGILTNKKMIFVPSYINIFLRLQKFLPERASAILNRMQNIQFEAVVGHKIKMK
wild type human HSD17B13, sequence (Q7Z5P4 20-300): as above

On to `O=C(NC[C@]12CC[C@](c3noc(-c4ccc(OS(=O)(=O)F)cc4)n3)(CC1)CC2)c1cc(F)c(O)c(F)c1` [Example 126, 4-(3-{4-[(3,5-difluoro-4-hydroxybenzamido)methyl]bicyclo[2.2.2]octan-1-yl}-1,2,4-oxadiazol-5-yl) phenyl sulfurofluoridate], for which the IC50 in assay [1] turned out to be 16 nM; in assay [2], 430 nM.

In the case of `Cc1ccc(-c2ccc3cn([C@H]4CC[C@H](CNC(=O)c5cc(F)c(O)c(F)c5)CC4)nc3c2)nn1` [Example 63, 3,5-difluoro-4-hydroxy-N-({(1r,4r)-4-[6-(6-methylpyridazin-3-yl)-2H-indazol-2-yl]cyclohexyl}methyl) benzamide], the values for the IC50 in assay [1] and in assay [2] were 11 nM and 370 nM, respectively.

As for `O=C(NC[C@]12CC[C@](n3cc4cc(C(F)(F)F)ccc4n3)(CC1)CC2)c1cc(F)c(O)c(F)c1F` [Example 193, 2,3,5-trifluoro-4-hydroxy-N-({4-[5-(trifluoromethyl)-2H-indazol-2-yl]bicyclo [2.2.2]octan-1-yl}methyl)benzamide], the IC50 in assay [1] worked out at 22 nM; in assay [2], 440 nM.

In the case of `O=C(NC[C@H]1CC[C@H](c2nc(-c3ccc(C(F)(F)F)nc3)no2)CC1)c1cc(F)c(O)cc1F` [Example 197, 2,5-difluoro-4-hydroxy-N-{[(1r,4r)-4-{3-[6-(trifluoromethyl)pyridin-3-yl]-1,2,4-oxadiazol-5-yl}cyclohexyl]methyl} benzamide], the IC50 in assay [1] stood at 39 nM; in assay [2], 470 nM.

Consider `O=C(NC[C@H]1CC[C@H](n2cc3ccc(-c4cnn(C5CCOC5)c4)cc3n2)CC1)c1cc(F)c(O)c(F)c1` (some centres unmarked) [Example 38, 3,5-difluoro-4-hydroxy-N-{[(1r,4r)-4-{6-[1-(oxolan-3-yl)-1H-pyrazol-4-yl]-2H-indazol-2-yl}cyclohexyl]methyl} benzamide], for which the values for the 50% inhibitory concentration (IC50) in assay [1] and in assay [2] were 4.6 nM and 150 nM, respectively.

In the case of `O=C(NC[C@H]1CC[C@H](n2cc3cc(Cl)ncc3n2)CC1)c1cc(F)c(O)c(F)c1` [Example 187, N-{[(1r,4r)-4-(5-chloro-2H-pyrazolo[3,4-c]pyridin-2-yl)cyclohexyl]methyl}-3,5-difluoro-4-hydroxybenzamide], the IC50 in assay [1] was found to be 10 nM; in assay [2] it was 400 nM.

With `O=C(NC[C@H]1CC[C@H](n2cc3ccc(-c4cnn(C5COC5)c4)cc3n2)CC1)c1cc(F)c(O)c(F)c1` [Example 45, 3,5-difluoro-4-hydroxy-N-{[(1r,4r)-4-{6-[1-(oxetan-3-yl)-1H-pyrazol-4-yl]-2H-indazol-2-yl}cyclohexyl]methyl} benzamide], the 50% inhibitory concentration (IC50) was 5.4 nM in assay [1] and 220 nM in assay [2].

For the compound `COc1ccc2cn([C@H]3CC[C@H](CNC(=O)c4cc(F)c(O)c(F)c4)CC3)nc2c1` [Example 23, 3,5-difluoro-4-hydroxy-N-{[(1r,4r)-4-(6-methoxy-2H-indazol-2-yl)cyclohexyl]methyl} benzamide], the IC50 in assay [1] stood at 20 nM.

With `Cc1noc([C@H]2CC[C@H](CNC(=O)c3ccc(O)c(F)c3)CC2)n1` [Example 214, 3-fluoro-4-hydroxy-N-{[(1r,4r)-4-(3-methyl-1,2,4-oxadiazol-5-yl)cyclohexyl]methyl} benzamide], in assay [1], the IC50 was 290 nM.

For the compound `Cc1noc([C@H]2CC[C@H](CNC(=O)c3cc(F)c(O)c(F)c3)CC2)n1` [Example 213, 3,5-difluoro-4-hydroxy-N-{[(1r,4r)-4-(3-methyl-1,2,4-oxadiazol-5-yl)cyclohexyl]methyl}benzamide], the IC50 in assay [1] came out at 64 nM.

On to `Cn1cc(-c2ccc3cn([C@]45CC[C@](CNC(=O)c6cc(F)c(O)c(F)c6F)(CC4)CC5)nc3c2)cn1` [Example 209, 2,3,5-trifluoro-4-hydroxy-N-({4-[6-(1-methyl-1H-pyrazol-4-yl)-2H-indazol-2-yl]bicyclo[2.2.2]octan-1-yl}methyl)benzamide], for which, in assay [2], the IC50 turned out to be 150 nM.

On to `COc1cc(-c2ccc3cn([C@H]4CC[C@H](CNC(=O)c5cc(F)c(O)c(F)c5)CC4)nc3c2)ccn1` [Example 106, 3,5-difluoro-4-hydroxy-N-({(1r,4r)-4-[6-(2-methoxypyridin-4-yl)-2H-indazol-2-yl]cyclohexyl}methyl) benzamide, trifluoroacetate salt], for which the IC50 in assay [2] worked out at 150 nM.

In the case of `N#Cc1cccc(-c2ccc3nn([C@H]4CC[C@H](CNC(=O)c5cc(F)c(O)c(F)c5)CC4)cc3c2)c1` [Example 156, N-({(1r,4r)-4-[5-(3-cyanophenyl)-2H-indazol-2-yl]cyclohexyl}methyl)-3,5-difluoro-4-hydroxybenzamide], the IC50 in assay [2] turned out to be 170 nM.

In the case of `O=C(NC[C@H]1CC[C@H](c2nc(-c3cnc(C(F)(F)F)cn3)no2)CC1)c1cc(F)c(O)c(F)c1F` [Example 148, 2,3,5-trifluoro-4-hydroxy-N-{[(1r,4r)-4-{3-[5-(trifluoromethyl)pyrazin-2-yl]-1,2,4-oxadiazol-5-yl}cyclohexyl]methyl} benzamide], in assay [2], the IC50 was 470 nM.

Turning to `O=C(NC[C@H]1CC[C@H](n2cc3ccc(-n4cccn4)cc3n2)CC1)c1cc(F)c(O)c(F)c1F` [Example 158, 2,3,5-trifluoro-4-hydroxy-N-({(1r,4r)-4-[6-(1H-pyrazol-1-yl)-2H-indazol-2-yl]cyclohexyl}methyl) benzamide, trifluoroacetate salt], the IC50 in assay [2] was 190 nM.

In the case of `Cc1cc(-c2ccc3cn([C@H]4CC[C@H](CNC(=O)c5cc(F)c(O)c(F)c5)CC4)nc3c2)ccn1` [Example 81, 3,5-difluoro-4-hydroxy-N-({(1r,4r)-4-[6-(2-methylpyridin-4-yl)-2H-indazol-2-yl]cyclohexyl}methyl) benzamide, trifluoroacetate salt], the IC50 in assay [2] turned out to be 120 nM.

`O=C(NC[C@H]1CC[C@H](n2cc3cc(Cl)ccc3n2)CC1)c1cc(F)c(O)c(F)c1F` [Example 26, N-{[(1r,4r)-4-(5-chloro-2H-indazol-2-yl)cyclohexyl]methyl}-2,3,5-trifluoro-4-hydroxybenzamide]: the IC50 in assay [2] turned out to be 190 nM.

In the case of `O=C(NC[C@H]1CC[C@H](n2cc3ccc(-c4cnc(C(F)(F)F)cn4)cc3n2)CC1)c1cc(F)c(O)c(F)c1` [Example 78, 3,5-difluoro-4-hydroxy-N-{[(1r,4r)-4-{6-[5-(trifluoromethyl)pyrazin-2-yl]-2H-indazol-2-yl}cyclohexyl]methyl} benzamide], in assay [2], the IC50 stood at 190 nM.

For `Cn1ncc(-c2ccc3cn([C@H]4CC[C@H](CNC(=O)c5cc(F)c(O)c(F)c5)CC4)nc3c2)n1` [Example 92, 3,5-difluoro-4-hydroxy-N-({(1r,4r)-4-[6-(2-methyl-2H-1,2,3-triazol-4-yl)-2H-indazol-2-yl]cyclohexyl}methyl)benzamide], in assay [2], the IC50 stood at 130 nM.

As to `O=C(NC[C@H]1CC[C@H](n2cc3ccc(-c4ccn5ccnc5c4)cc3n2)CC1)c1cc(F)c(O)c(F)c1` [Example 117, 3,5-difluoro-4-hydroxy-N-({(1r,4r)-4-[6-(imidazo[1,2-a]pyridin-7-yl)-2H-indazol-2-yl]cyclohexyl}methyl) benzamide, trifluoroacetate salt], the concentration for half-maximal inhibition (IC50) in assay [2] turned out to be 180 nM.

As to `O=C(NC[C@H]1CC[C@H](n2cc3ccc(-c4ncc(C(F)F)s4)cc3n2)CC1)c1cc(F)c(O)c(F)c1` [Example 91, N-{[(1r,4r)-4-{6-[5-(difluoromethyl)-1,3-thiazol-2-yl]-2H-indazol-2-yl}cyclohexyl]methyl}-3,5-difluoro-4-hydroxybenzamide], the IC50 in assay [2] turned out to be 280 nM.

Regarding `Cc1cccc(-c2ccc3cn([C@H]4CC[C@H](CNC(=O)c5cc(F)c(O)c(F)c5)CC4)nc3c2)n1` [Example 118, 3,5-difluoro-4-hydroxy-N-({(1r,4r)-4-[6-(6-methylpyridin-2-yl)-2H-indazol-2-yl]cyclohexyl}methyl) benzamide, trifluoroacetate salt], the IC50 in assay [2] was determined as 230 nM.

As for `O=C(NC[C@H]1CC[C@H](n2cc3ccc(-c4nccs4)cc3n2)CC1)c1cc(F)c(O)c(F)c1` [Example 110, 3,5-difluoro-4-hydroxy-N-({(1r,4r)-4-[6-(1,3-thiazol-2-yl)-2H-indazol-2-yl]cyclohexyl}methyl) benzamide], the IC50 in assay [2] came out at 110 nM.

For `COc1ccc(-c2ccc3cn([C@H]4CC[C@H](CNC(=O)c5cc(F)c(O)c(F)c5)CC4)nc3c2)cn1` [Example 108, 3,5-difluoro-4-hydroxy-N-({(1r,4r)-4-[6-(6-methoxy-pyridin-3-yl)-2H-indazol-2-yl]cyclohexyl}methyl) benzamide, trifluoroacetate salt], the IC50 in assay [2] was determined as 140 nM.

Regarding `O=C(NC[C@]12CC[C@@](n3cc4ccc(-c5ncccn5)cc4n3)(CC1)CC2)c1cc(F)c(O)c(F)c1F` [Example 7, 2,3,5-Trifluoro-4-hydroxy-N-({4-[6-(pyrimidin-2-yl)-2H-indazol-2-yl]bicyclo[2.2.2]octan-1-yl}methyl)benzamide], in assay [2], the half-maximal inhibitory concentration (IC50) came to 180 nM.

Source of the values: US20240150334A1, “HSD17B13 INHIBITORS AND/OR DEGRADERS” (Pfizer Inc., priority 2022, published 2024).
